In one data set the test system is IgA. Nature of the data set: IgA measurement in cecal contents (Rat IgA ELISA Kit). Type of data set: in vivo, SD rats. Conditions: 5.5% in NF diet, 8 weeks; for IgA amount of cecal contents: compared to the NF group (p<0.01), FIG. 2. The procedure:
(§1) Fifteen 3-week-old SD rats (Japan SLC, Inc.) were acclimatized to the facility for one week and then divided into three groups of NF group (No Fiber diet), α-CD group (5.5% α-CD-containing NF diet) and LS group (5.5% LS-containing NF diet), each including five rats, and each rat was kept in one cage. In this test, the experiment was conducted in accordance with the Guidelines for Animal Experimentation of Kobe Women's University (Kobe, Japan), and approved by the animal ethics committee of the Graduate School of Science of Health and Nutrition at Kobe Women's University. The breeding environment was at 23±3° C. with a humidity of 60±10%, and cycles of 12-hour light/12-hour dark were provided. The rats were allowed to freely take diets and water and bread for eight weeks with experimental diets.
(§2) The diets were prepared in such a manner that the α-CD or LS content of dry experimental diet became 5.5%. After mixing each powder well, 100 ml of water was added, and thus mixed material was used as an experimental diet.
(§3) The rats of each group were fasted overnight eight weeks after starting breeding and then dissected under isoflurane anesthesia, and the cecum were taken out.
One hundred milligrams of cecal contents were measured and stirred after adding 1 ml of Elix water. After stirring, the resultant was centrifuged under the conditions of 10000 rpm for 30 min at 4° C., and the supernatant was used as a sample for IgA measurement. IgA amount of each sample was measured using Rat IgA ELISA Kit (Bethyl Laboratories, Inc.). Statistical analysis was conducted in the same manner as in 1) above.
A general note: An ELISA detects its analyte on a solid surface through an enzyme-linked reagent.

For data set [1], the system named is Caco-2 cells. Kind of data set: Cytotoxicity of food emulsifiers alone (LDH activity). Type of data set: cell-based, human. The procedure:
(§4) Caco-2 cells were inoculated to a 96-well plate at 10000 cells/well and cultured for three days to confluency. The Caco-2 cells were washed with PBS and then treated with a food emulsifier SE (250 μg/mL HLB16P, 1000 μg/mL HLB11S or 500 μg/mL […]) or monolaurin (500 μg/mL) and α-CD for an hour, and the LDH activities of each were measured. The treatment amounts of α-CD were 1/10, 1, 1.5, 2, 5 and 10 times the weight ratios for each SE. For monolaurin, the treatment amounts of α-CD were 1/10, 1, 1.5, 2, 5, 10 and 15 times the weight ratios.
For comparison, the LDH activities of Caco-2 cells which were treated with the SE (HLB16P (0-1000 μg/mL), HLB11S or HLB16S (each 0-2000 μg/mL)) or monolaurin (0-2500 μg/mL) alone for an hour were also measured.

In data set [2] the test system is cecal microflora (Lactobacillales). Nature of the data set: Analysis of cecal microflora by the T-RFLP method. Type of data set: in vivo, SD rats. The conditions noted are these: 5.5% in NF diet, 8 weeks; compared to the NF group or the LS group. How it is done: as §1, with “diets. […]” for “diets.”
(§5) A cut was made in the cecum taken out in 1 above, and the contents were squeezed out. The weights of the cecal contents were measured. […]
(§6) The cecal contents which were thawed for the microflora analysis were mixed and homogenized, and the analysis of the microflora by the T-RFLP method, measurement of the SCFAs amounts and the pH analysis were entrusted (TechnoSuruga Laboratory Co., Ltd.). The total SCFAs amounts were calculated by adding up the amounts of lactic acid, succinic acid, acetic acid, propionic acid and butyric acid.

Data set [3] can be described thus: Measurement of SCFAs amounts in cecal contents. Type of data set: in vivo, SD rats. Conditions: 5.5% in NF diet, 8 weeks. How it is done: as §1, §2, §3
A cut was made in the cecum taken out in 1 above, and the contents were squeezed out. The weights of the cecal contents were measured. Immediately after the weight measurement, the contents were frozen with liquid nitrogen and stored at −80° C.
as §6

A short description of data set [4]: pH analysis of cecal contents. Conditions: 5.5% in NF diet, 8 weeks. Type of data set: in vivo, SD rats. The procedure: as §1, with “diets. […]” for “diets.”
as §5, §6

The next data set concerns mucin. Kind of data set: Mucin measurement in cecal contents (Fecal mucin Assay Kit). Type of data set: in vivo, SD rats. The conditions noted are these: 5.5% in NF diet, 8 weeks, FIG. 1. The procedure: as §1
The diets were prepared in such a manner that the α-CD or LS content of dry experimental diet became 5.5%. After mixing each powder well, 100 ml of water was added, and thus mixed material was used as an experimental diet. […]
The mucin amounts of the cecal contents were measured using Fecal mucin Assay Kit (Cosmo Bio Co., Ltd.), statistically analyzed by the Dunnett's test and the Student's t-test using Pharmaco Analyst I (Ver. 13.1.1; Three S Japan) and shown with the average values ±standard errors.

The subject of data set [5] is putrefactive products (indole, p-cresol and phenol). Kind of data set: Putrefactive product measurement in cecal contents. Type of data set: in vivo, SD rats. The conditions noted are these: 5.5% in NF diet, 8 weeks. How it is done:
as §1, §2, §3
Analysis of the amounts of putrefactive products (indole, p-cresol and phenol) in cecal contents was entrusted (TechnoSuruga Laboratory Co., Ltd.).

The next data set in a line: Feces amount measurement. Type of data set: in vivo, SD rats. The conditions noted are these: 5.5% in NF diet, feces of three days from the 45th day. How it is done:
as §1, §2
A drainboard was placed on the floor of each breeding cage 44 days after starting the test, and the feces that fell under the drainboard were collected every day for three days in succession after the 45th day. The weight (wet weight) of the collected feces (for the three days) was measured, and then after drying under reduced pressure, the feces weight after drying (dry weight) was measured.

The test system of data set [6] is Caco-2 cells. Kind of data set: Effect on cytotoxicity of food emulsifiers (LDH activity). Type of data set: cell-based, human. The conditions noted are these: one hour. The procedure: as §4
In data set [7] the test system is Caco-2 cells. Kind of data set: Transepithelial electrical resistance decrease by food emulsifier. Type of data set: cell-based, human. Conditions: HLB16P 62.5 μg/mL and α-CD 0-2000 μg/mL, 120 minutes, FIG. 7A. The procedure:
Caco-2 cells were seeded to a Transwell insert at 0.4×10^6 cells/mL using Corning (registered trademark) BioCoat (trademark) intestinal epithelial cells (Caco-2) differentiation environment kit (Corning International K.K.), cultured for one day in a normal medium and cultured for three days in a differentiation medium. The Caco-2 cells were washed with PBS, then treated with HLB16P (62.5 μg/mL) and α-CD (0-2000 μg/mL) and incubated for 120 minutes. During the incubation, the transepithelial electrical resistance values were measured every 20 minutes by Millicell ERS-2 resistance measurement system (Nihon Millipore K.K.).
In the same manner, the transepithelial electrical resistance values were measured after treatment with HLB16P (62.5 μg/mL) and α-CD (2000 μg/mL), each water-soluble dietary fiber or oligosaccharide (2000 μg/mL).

Where [8] appears, read: compared to the LS group (p<0.01, Student's t-test).
[9] abbreviates: compared to the LS group (p<0.05).
Where [10] appears, read: HLB11S 1000 μg/mL, weight ratio, FIG. 5B.
Where [11] appears, read: HLB16P 250 μg/mL, weight ratio, FIG. 5A.
The mark [12] stands for this setting: HLB16S 500 μg/mL, weight ratio, FIG. 5C.

Consider `OC[C@H]1O[C@@H](O[C@H]2[C@H](O)[C@@H](O)[C@@H](O[C@]3(CO)O[C@H](CO)[C@@H](O)[C@@H]3O)O[C@@H]2CO)[C@H](O)[C@@H](O)[C@H]1O` [LS, Lactosucrose, reference compound], for which the “IgA amount of cecal contents” value in the data set on IgA is given as “increased significantly”.
For the compound `CCCCCCCCCCCC(=O)OCC(O)CO` (stereo not shown) [monolaurin, Monolaurin], in the data set on Caco-2 cells [1], the “concentration at which cytotoxicity to the Caco-2 cells was observed” value is ≥ 156.25 µg/mL and the “concentration at which cytotoxicity to the Caco-2 cells was very high” value was ≥ 625 µg/mL.
For `OC[C@H]1O[C@@H]2O[C@H]3[C@H](O)[C@@H](O)[C@@H](O[C@H]4[C@H](O)[C@@H](O)[C@@H](O[C@H]5[C@H](O)[C@@H](O)[C@@H](O[C@H]6[C@H](O)[C@@H](O)[C@@H](O[C@H]7[C@H](O)[C@@H](O)[C@@H](O[C@H]1[C@H](O)[C@H]2O)O[C@@H]7CO)O[C@@H]6CO)O[C@@H]5CO)O[C@@H]4CO)O[C@@H]3CO` [α-CD], in data set [2], the “proportion of the Lactobacillales in cecal microflora” value is recorded as “increased”. Besides, in [3] (compared to the LS group), the “increase in amount of acetic acid” value is “remarkable”, the “increase in amount of lactic acid” value is reported as “remarkable”, the “increase in amount of n-butyric acid” value is “remarkable” and the “increase in amount of propionic acid” value was “remarkable”. In data set [3] (compared to the LS group), the “increase in amount of succinic acid” value is reported as “remarkable” and the “increase in total SCFAs amount” value was “remarkable”. Further, in [3] (compared to the NF group), the “amount of acetic acid in cecal contents” value is “increased significantly”, the “amount of lactic acid in cecal contents” value is listed as “increased significantly”, the “amount of n-butyric acid in cecal contents” value was “increased significantly” and the “amount of propionic acid in cecal contents” value is on record as “increased significantly”. Besides, in data set [3] (compared to the NF group), the “amount of succinic acid in cecal contents” value is reported as “increased significantly” and the “total SCFAs amount in cecal contents” value is reported as “increased significantly”. Also, in [4] (compared to the LS group), the “decrease in the cecal pH” value is “remarkable”. The “cecal pH” value in data set [4] (compared to the NF group) is reported as “decreased significantly”. Further, the “mucin amount of cecal contents” value in the data set with mucin (setting [8]) is reported as “increased significantly”. Besides, the “mucin amount of cecal contents” value with mucin (compared to the NF group (p<0.01)) is on record as “increased significantly”. Besides, the “IgA amount of cecal contents” value in the data set with IgA is “increased significantly”. Further, in the data set with IgA (α-CD group vs LS group, Student's t-test), the IgA-increasing effect entry is “comparable to that of LS”. In addition, the “production of the putrefactive products” value in data set [5] (setting [8]) is given as “suppressed significantly”. Also, the “amounts of the putrefactive products (indole, p-cresol and phenol) in cecal contents” value in [5] (compared to the NF group (p<0.01), FIG. 3) is reported as “decreased significantly”. In the data set “Feces amount measurement” (setting [9]), the “feces amount, dry weight” value is “increased significantly” and the “feces amount, wet weight” value was “increased significantly”. Further, in “Feces amount measurement” (compared to the NF group (p<0.01), FIG. 4A), the “feces amount, wet weight” value was “increased significantly”. Moreover, the “feces amount, dry weight” value in “Feces amount measurement” (compared to the NF group (p<0.01), FIG. 4B) is “increased significantly”. In addition, the “suppression of the cytotoxicity of the food emulsifier” value in the data set with Caco-2 cells [6] (1000 μg/mL HLB11S and 1000 μg/mL test substance, LDH activity, FIG. 6) is “exhibits such an effect”. For the same compound, in the data set on Caco-2 cells [6] (setting [10]), the “amount of α-CD with which cytotoxicity of HLB11S disappeared completely” value is reported as 10 times the amount and the “amount of α-CD with which cytotoxicity of HLB11S was reduced significantly” value was ≥ 0.1 times the amount. For the same compound, in the data set on Caco-2 cells [6] (setting [11]), the “amount of α-CD with which cytotoxicity of HLB16P disappeared completely” value is reported as 10 times the amount and the “amount of α-CD with which cytotoxicity of HLB16P was reduced significantly” value is reported as ≥ 1.5 times the amount. For the same compound, in the data set with Caco-2 cells [6] (setting [12]), the “amount of α-CD with which cytotoxicity of HLB16S disappeared completely” value is recorded as 5 times the amount and the “amount of α-CD with which cytotoxicity of HLB16S was reduced significantly” value is on record as ≥ 1.5 times the amount. Further, the “amount of α-CD with which cytotoxicity of monolaurin disappeared completely” value in the data set on Caco-2 cells [6] (monolaurin 500 μg/mL, weight ratio, FIG. 5D) is ≥ 10 times the amount. For the same compound, the “suppression of the decrease in transepithelial electrical resistance value by the SE” value with Caco-2 cells [7] was “suppressed by the addition of α-CD in a concentration-dependent manner”.

The record behind these values is patent US20230089789A1, “INTESTINAL TRACT FUNCTION-IMPROVING AGENT” (CYCLOCHEM BIO CO., LTD., priority 2020, published 2023).
